{
  "source": "PubChem BioAssay (NCI)",
  "experiment_in_all_cases": "NCI tumour cell line growth inhibition, 48 h",
  "key": {"[1]": {"test_system": "786-0 renal"}, "[2]": {"test_system": "A498 renal"}, "[3]": {"test_system": "A549 NSCLC"}, "[4]": {"test_system": "ACHN renal"}, "[5]": {"test_system": "BT-549 breast"}, "[6]": {"test_system": "CAKI-1 renal"}, "[7]": {"test_system": "CCRF-CEM leukemia"}, "[8]": {"test_system": "COLO 205 colon"}, "[9]": {"test_system": "DU-145 prostate"}, "[10]": {"test_system": "EKVX NSCLC"}, "[11]": {"test_system": "HCC-2998 colon"}, "[12]": {"test_system": "HCT-116 colon"}, "[13]": {"test_system": "HCT-15 colon"}, "[14]": {"test_system": "HL-60(TB) leukemia"}, "[15]": {"test_system": "HOP-62 NSCLC"}, "[16]": {"test_system": "HOP-92 NSCLC"}, "[17]": {"test_system": "HS 578T breast"}, "[18]": {"test_system": "HT29 colon"}, "[19]": {"test_system": "IGROV1 ovarian"}, "[20]": {"test_system": "K-562 leukemia"}, "[21]": {"test_system": "KM12 colon"}, "[22]": {"test_system": "LOX IMVI melanoma"}, "[23]": {"test_system": "M14 melanoma"}, "[24]": {"test_system": "MALME-3M melanoma"}, "[25]": {"test_system": "MCF7 breast"}, "[26]": {"test_system": "MDA-MB-231 breast"}, "[27]": {"test_system": "MDA-MB-435"}, "[28]": {"test_system": "MDA-MB-468 breast"}, "[29]": {"test_system": "MOLT-4 leukemia"}, "[30]": {"test_system": "NCI-H226 lung"}},
  "note": "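Assay format: 96-well plates, 48-hour exposure. Here, GI50 denotes the concentration required for 50% inhibition of growth. TGI: total growth inhibition.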",
  "data": [
    {"smiles": "O=C(Nc1ccc(-c2ccc3c(c2)NC(=O)/C3=C\\c2ccc[nH]2)cc1)Nc1ccc(Cl)c(C(F)(F)F)c1", "values": [
      {"measurement": "GI50", "setting": "[1]", "result": 3.09, "unit": "µM"},
      {"measurement": "TGI", "setting": "[1]", "result": 10.2, "unit": "µM"},
      {"measurement": "GI50", "setting": "[2]", "result": 2.35, "unit": "µM"},
      {"measurement": "TGI", "setting": "[2]", "result": 9.4, "unit": "µM"},
      {"measurement": "GI50", "setting": "[3]", "result": 1.56, "unit": "µM"},
      {"measurement": "TGI", "setting": "[3]", "result": 3.56, "unit": "µM"},
      {"measurement": "GI50", "setting": "[4]", "result": 3, "unit": "µM"},
      {"measurement": "TGI", "setting": "[4]", "result": 9.6, "unit": "µM"},
      {"measurement": "GI50", "setting": "[5]", "result": 2.05, "unit": "µM"},
      {"measurement": "TGI", "setting": "[5]", "result": 6.15, "unit": "µM"},
      {"measurement": "GI50", "setting": "[6]", "result": 2.92, "unit": "µM"},
      {"measurement": "TGI", "setting": "[6]", "result": 12.9, "unit": "µM"},
      {"measurement": "GI50", "setting": "[7]", "result": 2.57, "unit": "µM"},
      {"measurement": "TGI", "setting": "[7]", "result": 9.6, "unit": "µM"},
      {"measurement": "GI50", "setting": "[8]", "result": 2.82, "unit": "µM"},
      {"measurement": "TGI", "setting": "[8]", "result": 10.9, "unit": "µM"},
      {"measurement": "GI50", "setting": "[9]", "result": 2.13, "unit": "µM"},
      {"measurement": "TGI", "setting": "[9]", "result": 4.99, "unit": "µM"},
      {"measurement": "GI50", "setting": "[10]", "result": 0.243, "unit": "µM"},
      {"measurement": "TGI", "setting": "[10]", "result": 6.38, "unit": "µM"},
      {"measurement": "GI50", "setting": "[11]", "result": 2.18, "unit": "µM"},
      {"measurement": "TGI", "setting": "[11]", "result": 6.15, "unit": "µM"},
      {"measurement": "GI50", "setting": "[12]", "result": 1.78, "unit": "µM"},
      {"measurement": "TGI", "setting": "[12]", "result": 3.46, "unit": "µM"},
      {"measurement": "GI50", "setting": "[13]", "result": 1.6, "unit": "µM"},
      {"measurement": "TGI", "setting": "[13]", "result": 4.04, "unit": "µM"},
      {"measurement": "GI50", "setting": "[14]", "result": 3.27, "unit": "µM"},
      {"measurement": "TGI", "setting": "[14]", "result": 15, "unit": "µM"},
      {"measurement": "GI50", "setting": "[15]", "result": 2.09, "unit": "µM"},
      {"measurement": "TGI", "setting": "[15]", "result": 8.75, "unit": "µM"},
      {"measurement": "GI50", "setting": "[16]", "result": 1.23, "unit": "µM"},
      {"measurement": "TGI", "setting": "[16]", "result": 4.69, "unit": "µM"},
      {"measurement": "GI50", "setting": "[17]", "result": 2.64, "unit": "µM"},
      {"measurement": "TGI", "setting": "[17]", "result": 16.1, "unit": "µM"},
      {"measurement": "GI50", "setting": "[18]", "result": 2.56, "unit": "µM"},
      {"measurement": "TGI", "setting": "[18]", "result": 7.71, "unit": "µM"},
      {"measurement": "GI50", "setting": "[19]", "result": 4.05, "unit": "µM"},
      {"measurement": "TGI", "setting": "[19]", "result": 17.4, "unit": "µM"},
      {"measurement": "GI50", "setting": "[20]", "result": 2.54, "unit": "µM"},
      {"measurement": "TGI", "setting": "[20]", "result": 11.3, "unit": "µM"},
      {"measurement": "GI50", "setting": "[21]", "result": 2.24, "unit": "µM"},
      {"measurement": "TGI", "setting": "[21]", "result": 10.6, "unit": "µM"},
      {"measurement": "GI50", "setting": "[22]", "result": 1.73, "unit": "µM"},
      {"measurement": "TGI", "setting": "[22]", "result": 3.33, "unit": "µM"},
      {"measurement": "GI50", "setting": "[23]", "result": 3.47, "unit": "µM"},
      {"measurement": "TGI", "setting": "[23]", "result": 14.4, "unit": "µM"},
      {"measurement": "GI50", "setting": "[24]", "result": 3.78, "unit": "µM"},
      {"measurement": "TGI", "setting": "[24]", "result": 16.4, "unit": "µM"},
      {"measurement": "GI50", "setting": "[25]", "result": 0.18, "unit": "µM"},
      {"measurement": "TGI", "setting": "[25]", "result": 1.63, "unit": "µM"},
      {"measurement": "GI50", "setting": "[26]", "result": 2.23, "unit": "µM"},
      {"measurement": "TGI", "setting": "[26]", "result": 10.1, "unit": "µM"},
      {"measurement": "GI50", "setting": "[27]", "result": 2, "unit": "µM"},
      {"measurement": "TGI", "setting": "[27]", "result": 4.67, "unit": "µM"},
      {"measurement": "GI50", "setting": "[28]", "result": 0.033, "unit": "µM"},
      {"measurement": "TGI", "setting": "[28]", "result": 0.322, "unit": "µM"},
      {"measurement": "GI50", "setting": "[29]", "result": 2.48, "unit": "µM"},
      {"measurement": "TGI", "setting": "[29]", "result": 11.4, "unit": "µM"},
      {"measurement": "GI50", "setting": "[30]", "result": 1.33, "unit": "µM"}
    ]}
  ]
}
